The values that follow come from patent publication US20220081434A1, “DIHYDROISOQUINOLINE COMPOUND” (SUZHOU ARK BIOPHARMACEUTICAL CO., LTD., priority 2019, published 2022).

The test system of series [1] is hepatitis B surface antigen (HBsAg). Kind of series: Determination of hepatitis B surface antigen (HBsAg) in HepG2.2.15 cell supernatant. Conditions: Hepatitis B virus, HepG2.2.15, 96 h, read-out: HBsAg inhibitory activity IC50. Format: cell-based, hepatitis B virus (HepG2.2.15 cells). Here is the method:
(§1) The full genome of HBV was inserted into an […] cell, which could therefore express HBV continuously (Sells et al, Proc Natl Acad Sci USA. 1987 February; 84 (4):1005-9). The culture condition was DMEM medium containing 10% serum and […] G418. Cells were placed in an incubator containing 5% CO2 and cultured at 37° C.
HepG2.2.15 cells were seeded into a 96-well culture plate at a density of 3×10^4 cells/well. On the next day, the drug dissolved in DMSO was subjected to a 5-fold dilution and then added to the cells. 0.5% DMSO was added separately as control. The supernatant was collected after 4 days of drug action, and the content of hepatitis B surface antigen was determined.
The determination of hepatitis B surface antigen was carried out by using a kit for quantitative determination of hepatitis B virus surface antigen (chemiluminescence method). The specific operations were as follows. 50 μL cell culture supernatant was taken and transferred to the assay plate. 50 μL of enzyme-linked reagent was added thereto and the assay plate was sealed. Incubation was carried out at room temperature for 1 hour. Afterwards, the assay plate was washed six times with PBS, and finally, the residual liquid was removed by shaking the plate. 25 μL of substrates A and B were added respectively, and the determination was conducted by using a microplate reader (Tecan Infinite® F200) after ten minutes of reaction. IC50 was calculated after fitting the dose-response curve.

A further series deals with HBV DNA. Kind of series: Determination of HBV DNA in HepG2.2.15 cell supernatant by qPCR. Conditions: Hepatitis B virus, 168 h, HepG2.2.15 cells, supernatant after a total of 7 days of drug action, read-out: Inhibitory activity against HBV DNA IC50. The series is classed as cell-based, hepatitis B virus (HepG2.2.15 cells). How it is done:
as §1
HepG2.2.15 cells were seeded into a 96-well culture plate at a density of 4×10^4 cells/well. After 4 hours, the drug dissolved in DMSO was subjected to a 4-fold dilution and then added to cells. 0.5% DMSO was added separately as control. On the 4th day of drug action, the original supernatant was removed and then the drug was added thereto again. The supernatant was collected after a total of 7 days of drug action and treated with lysis buffer. The determination of hepatitis B DNA was carried out by real-time fluorescence-based quantitative polymerase chain reaction (qPCR). After the completion of the qPCR, data were exported from the instrument and analyzed, and IC50 indicating antiviral activity was calculated after fitting the dose-response curve.

The nature of series [2]: Pharmacokinetic experiments in ICR mice (plasma). Particulars: for AUC(0-t): read-out: AUC0-12. The series is classed as in vivo. How it is done:
Multiple compounds in the Examples of the present disclosure were administered to ICR mice to conduct pharmacokinetic experiments. A single intravenous injection (with a dose of 2 mg/kg) and a single oral administration (with a dose of 10 mg/kg) were administered respectively. Blood was respectively collected prior to administration and 5 minutes, 15 minutes, 30 minutes, 1 hour, 2 hours, 4 hours, 8 hours, 12 hours and 24 hours after administration, and the concentration of the test compound in plasma was determined. Plasma pharmacokinetic data of the control compound (obtained from Example 28 in patent WO2018130152 A1) and the compounds of Examples 10 and 19 in the present disclosure in mice were as shown in the following Table 5 to Table 7.

Where [3] appears, read: mouse, single intravenous injection 2 mg/kg, plasma.
Setting [4] is: mouse, single oral administration 10 mg/kg, plasma.

Where two headings read alike, the source gives them in different places.

In the case of `COc1cc2c(cc1-c1cnc(COC(F)F)s1)CC(C(C)(C)C)n1cc(C(=O)O)c(=O)cc1-2` (centres unmarked) [Example 23, 6-tert-butyl-9-{2-[(difluoromethoxy)methyl]thiazol-5-yl}-10-methoxy-2-oxo-6,7-dihydro-2H-pyrido[2,1-a]isoquinoline-3-carboxylic Acid], the results for the IC50 (in series [1]; in the series on HBV DNA) were 0.2 nM and 0.84 nM, respectively.
For `COc1cc2c(cc1-c1cnc(N3CCC(C)(O)CC3)s1)CC(C(C)(C)C)n1cc(C(=O)O)c(=O)cc1-2` (centres unmarked) [Example 7, 6-tert-butyl-9-[2-(4-hydroxy-4-methylpiperidin-1-yl)thiazol-5-yl]-10-methoxy-2-oxo-6,7-dihydro-2H-pyrido[2,1-a]isoquinoline-3-carboxylic Acid], in that order: 0.08 nM and 0.15 nM.
The like results for `COc1cc2c(cc1-c1cnc(N3CC(F)C3)s1)CC(C(C)(C)C)n1cc(C(=O)O)c(=O)cc1-2` (centres unmarked) [Example 11, 6-tert-butyl-9-[2-(3-fluoroazetidin-1-yl)thiazol-5-yl]-10-methoxy-2-oxo-6,7-dihydro-2H-pyrido[2,1-a]isoquinoline-3-carboxylic Acid] were, in that order, 0.09 nM and 0.13 nM.
Turning to `COc1cc2c(cc1-c1cnc(N3CCC(CO)CC3)s1)CC(C(C)(C)C)n1cc(C(=O)O)c(=O)cc1-2` (centres unmarked) [Example 2, 6-tert-butyl-9-{2-[4-(hydroxymethyl)piperidin-1-yl]thiazol-5-yl}-10-methoxy-2-oxo-6,7-dihydro-2H-pyrido[2,1-a]isoquinoline-3-carboxylic Acid], the IC50 in series [1] was 0.06 nM; in the series with HBV DNA it was 0.11 nM.
On to `COc1cc2c(cc1-c1cnc(C3CC(OC)C3)s1)CC(C(C)(C)C)n1cc(C(=O)O)c(=O)cc1-2` (centres unmarked) [Example 27, 6-tert-butyl-10-methoxy-9-[2-(3-methoxycyclobutyl)thiazol-5-yl]-2-oxo-6,7-dihydro-2H-pyrido[2,1-a]isoquinoline-3-carboxylic Acid], for which the IC50 in series [1] amounted to 0.1 nM.
As to `CCOCc1ncc(-c2cc3c(cc2OC)-c2cc(=O)c(C(=O)O)cn2C(C(C)(C)C)C3)s1` (centres unmarked) [Example 14, 6-tert-butyl-9-[2-(ethoxymethyl)thiazol-5-yl]-10-methoxy-2-oxo-6,7-dihydro-2H-pyrido[2,1-a]isoquinoline-3-carboxylic Acid], the IC50 in series [1] was determined as 0.2 nM.
The same measure, in the same setting: under `COCCOc1ncc(-c2cc3c(cc2OC)-c2cc(=O)c(C(=O)O)cn2C(C(C)(C)C)C3)s1` (centres unmarked) [Example 21, 6-tert-butyl-10-methoxy-9-[2-(2-methoxyethoxy)thiazol-5-yl]-2-oxo-6,7-dihydro-2H-pyrido[2,1-a]isoquinoline-3-carboxylic Acid] stands 0.3 nM; under `COc1cc2c(cc1-c1cnc(C3CC(F)(F)C3)s1)CC(C(C)(C)C)n1cc(C(=O)O)c(=O)cc1-2` (centres unmarked) [Example 25, 6-tert-butyl-9-[2-(3,3-difluorocyclobutyl)thiazol-5-yl]-10-methoxy-2-oxo-6,7-dihydro-2H-pyrido[2,1-a]isoquinoline-3-carboxylic Acid], 0.24 nM; under `COc1cc2c(cc1-c1cnc(C(C)(C)OC)s1)CC(C(C)(C)C)n1cc(C(=O)O)c(=O)cc1-2` (centres unmarked) [Example 17, 6-tert-butyl-10-methoxy-9-[2-(2-methoxypropan-2-yl)thiazol-5-yl]-2-oxo-6,7-dihydro-2H-pyrido[2,1-a]isoquinoline-3-carboxylic Acid], 0.3 nM.
`COc1cc2c(cc1-c1cnc(N3CCOCC3)s1)CC(C(C)(C)C)n1cc(C(=O)O)c(=O)cc1-2` (centres unmarked) [Example 5, 6-tert-butyl-10-methoxy-9-(2-morpholinothiazol-5-yl)-2-oxo-6,7-dihydro-2H-pyrido[2,1-a]isoquinoline-3-carboxylic Acid]: the IC50 in series [1] was 0.3 nM.
The same measure, in the same setting: under `COc1ncc(-c2cc3c(cc2OC)-c2cc(=O)c(C(=O)O)cn2C(C(C)(C)C)C3)s1` (centres unmarked) [Example 12, 6-tert-butyl-10-methoxy-9-(2-methoxythiazol-5-yl)-2-oxo-6,7-dihydro-2H-pyrido[2,1-a]isoquinoline-3-carboxylic Acid] stands 0.45 nM; under `COc1cc2c(cc1-c1cnc(C3CC(F)C3)s1)CC(C(C)(C)C)n1cc(C(=O)O)c(=O)cc1-2` (centres unmarked) [Example 26, 6-tert-butyl-9-[2-(3-fluorocyclobutyl)thiazol-5-yl]-10-methoxy-2-oxo-6,7-dihydro-2H-pyrido[2,1-a]isoquinoline-3-carboxylic Acid], 0.1 nM.
On the same count and under the same terms, then `COc1cc2c(cc1-c1cnc(N3CCC3)s1)CC(C(C)(C)C)n1cc(C(=O)O)c(=O)cc1-2` (centres unmarked) [Example 3, 9-[2-(azetidin-1-yl)thiazol-5-yl]-6-tert-butyl-10-methoxy-2-oxo-6,7-dihydro-2H-pyrido[2,1-a]isoquinoline-3-carboxylic Acid], with 0.07 nM.
The same measure, in the same setting: under `CCNC(=O)c1ncc(-c2cc3c(cc2OC)-c2cc(=O)c(C(=O)O)cn2C(C(C)(C)C)C3)s1` (centres unmarked) [Example 20, 6-tert-butyl-9-[2-(ethylcarbamoyl)thiazol-5-yl]-10-methoxy-2-oxo-6,7-dihydro-2H-pyrido[2,1-a]isoquinoline-3-carboxylic Acid] stands 0.3 nM; under `COc1cc2c(cc1-c1cnc(N(C)C)s1)CC(C(C)(C)C)n1cc(C(=O)O)c(=O)cc1-2` (centres unmarked) [Example 6, 6-tert-butyl-9-[2-(dimethylamino)thiazol-5-yl]-10-methoxy-2-oxo-6,7-dihydro-2H-pyrido[2,1-a]isoquinoline-3-carboxylic Acid], 0.3 nM; under `COCCNC(=O)c1ncc(-c2cc3c(cc2OC)-c2cc(=O)c(C(=O)O)cn2C(C(C)(C)C)C3)s1` (centres unmarked) [Example 22, 6-tert-butyl-10-methoxy-9-{2-[(2-methoxyethyl)carbamoyl]thiazol-5-yl}-2-oxo-6,7-dihydro-2H-pyrido[2,1-a]isoquinoline-3-carboxylic Acid], 0.4 nM.
Consider `CNC(=O)c1ncc(-c2cc3c(cc2OC)-c2cc(=O)c(C(=O)O)cn2C(C(C)(C)C)C3)s1` (centres unmarked) [Example 19, 6-tert-butyl-10-methoxy-9-[2-(methylcarbamoyl)thiazol-5-yl]-2-oxo-6,7-dihydro-2H-pyrido[2,1-a]isoquinoline-3-carboxylic Acid], for which the IC50 in series [1] was 0.3 nM. Besides, the bioavailability in series [2] (mouse, plasma, oral 10 mg/kg vs intravenous 2 mg/kg, read-out: F (bioavailability)) came out at 87%. For the same molecule, in series [2] (setting [3]), the AUC(0-inf) stood at 1210 ng·h/mL, the Cmax came to 1020 ng/mL, the Tmax was 4.8 min and the clearance was 27.6 mL/min/kg. For the same molecule, in series [2] (setting [3]), the half-life is 78 min and the AUC(0-t) is 1200 ng·h/mL. The Vd in series [2] (mouse, single intravenous injection 2 mg/kg, plasma, read-out: Vss) turned out to be 2.27 L/kg. Moreover, in series [2] (setting [4]), the AUC(0-inf) is 5290 ng·h/mL, the Cmax came to 2420 ng/mL, the Tmax stood at 30 min and the half-life is 150 min. Further, in series [2] (setting [4]), the AUC(0-t) worked out at 5210 ng·h/mL. For the same molecule, the “plasma exposure compared with the control compound” value in series [2] (same dose, after intravenous injection and oral administration) is on record as “significantly higher”.
For the molecule `COc1cc2c(cc1-c1cnc(C(C)OC)s1)CC(C(C)(C)C)n1cc(C(=O)O)c(=O)cc1-2` (centres unmarked) [Example 15, 6-tert-butyl-10-methoxy-9-[2-(1-methoxyethyl)thiazol-5-yl]-2-oxo-6,7-dihydro-2H-pyrido[2,1-a]isoquinoline-3-carboxylic Acid], the IC50 in series [1] was found to be 0.2 nM.
The same measure, in the same setting: under `COc1cc2c(cc1-c1cnc(N3CCC(O)CC3)s1)CC(C(C)(C)C)n1cc(C(=O)O)c(=O)cc1-2` (centres unmarked) [Example 1, 6-tert-butyl-9-[2-(4-hydroxypiperidin-1-yl)thiazol-5-yl]-10-methoxy-2-oxo-6,7-dihydro-2H-pyrido[2,1-a]isoquinoline-3-carboxylic Acid] stands 0.33 nM.
With `COc1cc2c(cc1-c1cnc(N3CCC(OC)CC3)s1)CC(C(C)(C)C)n1cc(C(=O)O)c(=O)cc1-2` (centres unmarked) [Example 8, 6-tert-butyl-10-methoxy-9-[2-(4-methoxypiperidin-1-yl)thiazol-5-yl]-2-oxo-6,7-dihydro-2H-pyrido[2,1-a]isoquinoline-3-carboxylic Acid], the IC50 in series [1] was 0.2 nM.

Usually IC50 stands for the concentration that inhibits the measured activity by half. Broadly, the bioavailability is dose-corrected exposure relative to a reference, in per cent. The AUC(0-inf) is total exposure, with the tail of the curve extrapolated. A low value points to less exposure. For orientation: Cmax means the highest concentration seen after dosing. In general, Tmax refers to the time from dosing to the highest level. As a reminder, the clearance is a measure of how efficiently the substance is removed, as volume per time. Lower therefore signals inefficient removal. A word on the half-life: it is the time in which the quantity being followed falls by half.
